Laboratory results taken from patent EP4803074A1, “PHARMACEUTICAL COMPOSITION OF PYRIMIDINE DERIVATIVE” (TYK Medicines, Inc., priority 2023, dated 2025).
Read-outs that look alike come from different tables or passages of the source.

Tests used:
[1] = pH-dependent solubility; assay type: physicochemical; conditions: result in words
Description: (§1) Drugs can be absorbed at many different sites along the gastrointestinal tract (including the stomach, duodenum, jejunum, ileum, and colon) following oral administration. Due to the significant pH gradient between the stomach (pH 1 - 3.5) and the small intestine (pH 4 - 8), the pH varies at each absorption site. […] In such cases, where the solubility of a drug varies with pH-and specifically when solubility is highest at acidic pH levels-a problem arises: the drug may precipitate out of solution as it passes through the gastrointestinal tract, but the drug should remain in solution to be absorbed, such precipitation may affect the extent and rate of absorption.

[2] = Impurity B content of process samples on storage at room temperature (HPLC); assay type: physicochemical; conditions: 20 days (Laboratory placement)
Description: Impurity B (Impurity RRT1.5, i.e., relative retention time 1.5) is a degradation impurity identified in the stability studies of this formulation and is a specific impurity that requires close monitoring. […] Therefore, the study of Impurity B content is also a key point of the invention. The method for determining the content of Impurity B is as follows: [table] [table] • Heptafluorobutyric acid: Chromatographic grade Water: Ultrapure water Ammonia solution: Chromatographic grade or analytical grade • Acetonitrile: Chromatographic grade Methanol: Chromatographic grade • TY-9591 Reference Standard: In-house preparation or commercially purchased • 3. […]

[3] = Permeability; assay type: in vitro ADME; conditions: result in words
Description: as §1

[4] = Single-dose pharmacokinetic study, fasting vs high-fat meal; conditions: human, in vivo, po, 80 mg, healthy volunteers
[5] = After high-fat meal, single oral dose of 80 mg of Tablet 22
[6] = Fasting, single oral dose of 80 mg of Tablet 22

solubility at pH 1 (hydrochloric acid) compared to pH 6.8 (sodium hydroxide-sodium dihydrogen phosphate buffer, 25 mM) [1]: higher solubility
Impurity B/% [2]: 0.13%
permeability [3]: moderate permeability
AUC(0-inf) [4, 5]: 4350 ng·h/mL
Cmax [4, 5]: 69 ng/mL
Tmax [4, 5]: 5.95 h
half-life [4, 5]: 48.6 h
AUC(0-t) ([4]; After high-fat meal, single oral dose of 80 mg of Tablet 22, read-out: AUC0-72h): 2670 ng·h/mL
AUC(0-t) ([4]; After high-fat meal, single oral dose of 80 mg of Tablet 22, read-out: AUC0-t): 4300 ng·h/mL
Tmax ([4]; Fasting, single oral dose of 80 mg of Tablet 22 (40 mg*2 tablets)): 5.99 h
AUC(0-inf) [4, 6]: 3930 ng·h/mL
Cmax [4, 6]: 67.8 ng/mL
half-life [4, 6]: 51.2 h
AUC(0-t) ([4]; Fasting, single oral dose of 80 mg of Tablet 22, read-out: AUC0-72h): 2330 ng·h/mL
AUC(0-t) ([4]; Fasting, single oral dose of 80 mg of Tablet 22, read-out: AUC0-t): 3880 ng·h/mL
SMILES: [2H]C([2H])([2H])n1cc(-c2ccnc(Nc3cc(NC(=O)C=C)c(N(C)CCN(C)C)cc3OC)n2)c2ccccc21 [TY-9591, N-(2-((2-(dimethylamino)ethyl) (methyl)amine)-4-methoxy-5-((4-(1-deuteriatedmethyl-1H-indol-3-yl)pyrimidin-2-yl)amine)phenyl)acrylamide]
